Results reported in patent US10323018B2 (Millennium Pharmaceuticals, Inc., priority 2015, dated 2019).

Tests used:
hNAMPT protein = hNAMPT protein (Homo sapiens (Human), UniProt P43490); test: NAMPT enzyme assay (TR-FRET/HTRF with BodiPY ligand); assay type: binding; conditions: for inhibition at 1 µM: NAMPT inhibition at compound concentration 1 μM, read-out: Percent Inhibition; for IC50: NAMPT inhibition, IC50 range class
Outline: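 His-tagged hNAMPT with anti-6His-Tb, incubated with compound and BodiPY ligand for 1 h at rt in the dark, in Tris-HCl pH 7.5 buffer with DTT, NaCl, MgCl2 and Tween 20. TR-FRET measured with 320 nm excitation as the 520/486 nm emission ratio. IC50 fitted relative to DMSO controls.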

PC3 cells = test: PC3 growth inhibition (Cell-titer glo, 72 hours); assay type: cell-based; conditions: Homo sapiens, PC-3, 72 h, read-out: Percent Viability, PC3 cells, compound concentration 1.667 μM, 72 hours
Outline: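 PC3 cells grown in RPMI1640 plated at 8×10^4 cells/ml, incubated overnight, then exposed to compound diluted in AIM serum-free medium for 72 h at 37 °C, 5% CO2. Luminescence by CellTiter-Glo relative to DMSO controls; % viability at single concentration, GI50 or LD50 from concentration-response curves.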

hNAMPT protein, sequence (P43490 whole entry): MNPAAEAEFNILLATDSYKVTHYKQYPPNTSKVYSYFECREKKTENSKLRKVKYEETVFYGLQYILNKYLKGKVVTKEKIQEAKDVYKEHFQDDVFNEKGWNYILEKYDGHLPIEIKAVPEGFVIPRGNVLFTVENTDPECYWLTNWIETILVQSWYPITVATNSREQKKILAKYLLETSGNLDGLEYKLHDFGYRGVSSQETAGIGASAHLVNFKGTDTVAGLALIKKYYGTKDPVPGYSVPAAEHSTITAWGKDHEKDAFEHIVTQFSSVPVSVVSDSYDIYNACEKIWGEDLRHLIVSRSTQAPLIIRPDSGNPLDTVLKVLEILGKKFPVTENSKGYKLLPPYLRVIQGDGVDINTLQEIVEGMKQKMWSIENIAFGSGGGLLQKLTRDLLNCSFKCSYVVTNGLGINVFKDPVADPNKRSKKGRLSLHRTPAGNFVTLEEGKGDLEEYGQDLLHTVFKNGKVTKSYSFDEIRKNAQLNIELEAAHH

| SMILES | inhibition at 1 µM (hNAMPT protein) | IC50 (hNAMPT protein) | viability at 1.667 µM (PC3 cells) |
| --- | --- | --- | --- |
| CCOc1cc(-c2ccc(OC)nc2)nc2cc(C(=O)NCCCc3cnn[nH]3)ccc12 [Compound I-102, 4-ethoxy-2-(6-methoxypyridin-3-yl)-N-[3-(1H-1,2,3-triazol-5-yl)propyl]quinoline-7-carboxamide] | 99% | < 10 nM | 2% |
| CCOc1cc(-c2ccc(C)nc2OC)nc2cc(C(=O)NCCCc3cnn[nH]3)ccc12 [Compound I-103, 4-ethoxy-2-(2-methoxy-6-methylpyridin-3-yl)-N-[3-(1H-1,2,3-triazol-5-yl)propyl]quinoline-7-carboxamide] | > 99% | 10 to 50 nM | 2% |
| CCOc1cc(-c2ccc(C)nc2OC)nc2cc(C(=O)NCCCc3ccn[nH]3)ccc12 [Compound I-104, 4-ethoxy-2-(2-methoxy-6-methylpyridin-3-yl)-N-[3-(1H-pyrazol-5-yl)propyl]quinoline-7-carboxamide] | 95% | 10 to 50 nM | 2% |
| CCOc1cc(-c2cccnc2OC)nc2cc(C(=O)NCCCc3cnn[nH]3)ccc12 [Compound I-105, 4-ethoxy-2-(2-methoxypyridin-3-yl)-N-[3-(1H-1,2,3-triazol-5-yl)propyl]quinoline-7-carboxamide] | 100% | 10 to 50 nM | 2% |
| CCOc1cc(-c2ccc(F)cc2OC)nc2cc(C(=O)NCCCc3[nH]nnc3C)ccc12 [Compound I-106, 4-ethoxy-2-(4-fluoro-2-methoxyphenyl)-N-[3-(4-methyl-1H-1,2,3-triazol-5-yl)propyl]quinoline-7-carboxamide] | 100% | 10 to 50 nM | 2% |
| CCOc1cc(-c2ccc(F)cc2)nc2cc(C(=O)NCCc3cnn[nH]3)ccc12 [Compound I-107, 4-ethoxy-2-(4-fluorophenyl)-N-[2-(1H-1,2,3-triazol-5-yl)ethyl]quinoline-7-carboxamide] | 99% | < 10 nM | 2% |
| CCOc1cc(-c2ccc(F)cc2OC)nc2cc(C(=O)NCCc3cnn[nH]3)ccc12 [Compound I-108, 4-ethoxy-2-(4-fluoro-2-methoxyphenyl)-N-[2-(1H-1,2,3-triazol-5-yl)ethyl]quinoline-7-carboxamide] | 99% | 10 to 50 nM | 3% |
| COCCOc1cc(-c2ccc(F)cc2)nc2cc(C(=O)NCCCc3cn[nH]n3)ccc12 [Compound I-109, 2-(4-fluorophenyl)-4-(2-methoxyethoxy)-N-[3-(2H-1,2,3-triazol-4-yl)propyl]quinoline-7-carboxamide] | 100% | 10 to 50 nM | 2% |
| CCOc1cc(-c2ccc(C)nc2)nc2cc(C(=O)NCCCc3cnn[nH]3)ccc12 [Compound I-110, 4-ethoxy-2-(6-methylpyridin-3-yl)-N-[3-(1H-1,2,3-triazol-5-yl)propyl]quinoline-7-carboxamide] | 100% | < 10 nM | 2% |
| CCOc1cc(-c2ccc(C)nc2)nc2cc(C(=O)NCCCc3cc[nH]n3)ccc12 [Compound I-111, 4-ethoxy-2-(6-methylpyridin-3-yl)-N-[3-(1H-pyrazol-3-yl)propyl]quinoline-7-carboxamide] | 97% | 10 to 50 nM | 2% |
| CCOc1cc(-c2ccc(C)nc2)nc2cc(C(=O)NCCCc3[nH]nnc3C)ccc12 [Compound I-112, 4-ethoxy-2-(6-methylpyridin-3-yl)-N-[3-(4-methyl-1H-1,2,3-triazol-5-yl)propyl]quinoline-7-carboxamide] | 99% | 10 to 50 nM | 2% |
| CCOc1cc(-c2ccc(C)nc2)nc2cc(C(=O)NCCc3c[nH]nc3C)ccc12 [Compound I-113, 4-ethoxy-N-[2-(3-methyl-1H-pyrazol-4-yl)ethyl]-2-(6-methylpyridin-3-yl)quinoline-7-carboxamide] | 97% | 10 to 50 nM | 2% |
| CCOc1cc(-c2ccnc(OC)c2)nc2cc(C(=O)NCCCc3nnc[nH]3)ccc12 [Compound I-114, 4-ethoxy-2-(2-methoxypyridin-4-yl)-N-[3-(4H-1,2,4-triazol-3-yl)propyl]quinoline-7-carboxamide] | 97% | 10 to 50 nM | 2% |
| CCOc1cc(-c2ccc(F)cc2)nc2cc(C(=O)NCCCc3cnn[nH]3)ccc12 [Compound I-115, 4-ethoxy-2-(4-fluorophenyl)-N-[3-(1H-1,2,3-triazol-5-yl)propyl]quinoline-7-carboxamide] | > 99% | < 10 nM | 2% |
| CCOc1cc(-c2ccnc(OC)c2)nc2cc(C(=O)NCCCc3cnn[nH]3)ccc12 [Compound I-116, 4-ethoxy-2-(2-methoxypyridin-4-yl)-N-[3-(1H-1,2,3-triazol-5-yl)propyl]quinoline-7-carboxamide] | 98% | < 10 nM | 2% |
| CCOc1cc(-c2ccnc(C)c2)nc2cc(C(=O)NCCCc3cnn[nH]3)ccc12 [Compound I-117, 4-ethoxy-2-(2-methylpyridin-4-yl)-N-[3-(1H-1,2,3-triazol-5-yl)propyl]quinoline-7-carboxamide] | 100% | < 10 nM | 2% |
| CCOc1cc(-c2ccn(C)c(=O)c2)nc2cc(C(=O)NCCCc3nnc[nH]3)ccc12 [Compound I-118, 4-ethoxy-2-(1-methyl-2-oxo-1,2-dihydropyridin-4-yl)-N-[3-(4H-1,2,4-triazol-3-yl)propyl]quinoline-7-carboxamide] | 99% | 10 to 50 nM | 2% |
| CCOc1cc(-c2ccn(C)c(=O)c2)nc2cc(C(=O)NCCCc3cc[nH]n3)ccc12 [Compound I-119, 4-ethoxy-2-(1-methyl-2-oxo-1,2-dihydropyridin-4-yl)-N-[3-(1H-pyrazol-3-yl)propyl]quinoline-7-carboxamide] | 100% | 10 to 50 nM | 2% |
| COCCOc1cc(-c2ccc(F)cc2)nc2cc(C(=O)NCCCc3cc[nH]n3)ccc12 [Compound I-120, 2-(4-fluorophenyl)-4-(2-methoxyethoxy)-N-[3-(1H-pyrazol-3-yl)propyl]quinoline-7-carboxamide] | 94% | 10 to 50 nM | 2% |
| CCOc1cc(-c2ccc(F)cc2OC)nc2cc(C(=O)NCCCc3cnn[nH]3)ccc12 [Compound I-121, 4-ethoxy-2-(4-fluoro-2-methoxyphenyl)-N-[3-(1H-1,2,3-triazol-5-yl)propyl]quinoline-7-carboxamide] | > 99% | < 10 nM | 2% |
| CCOc1cc(-c2ccc(=O)n(C)c2)nc2cc(C(=O)NCCCc3nnc[nH]3)ccc12 [Compound I-122, 4-ethoxy-2-(1-methyl-6-oxo-1,6-dihydropyridin-3-yl)-N-[3-(4H-1,2,4-triazol-3-yl)propyl]quinoline-7-carboxamide] | > 99% | 10 to 50 nM | 2% |
| CCOc1cc(-c2ccc(=O)n(C)c2)nc2cc(C(=O)NCCCc3cc[nH]n3)ccc12 [Compound I-123, 4-ethoxy-2-(1-methyl-6-oxo-1,6-dihydropyridin-3-yl)-N-[3-(1H-pyrazol-3-yl)propyl]quinoline-7-carboxamide] | > 99% | 10 to 50 nM | 2% |
| COCCOc1cc(-c2ccc(F)cc2)nc2cc(C(=O)NCCCc3ncn[nH]3)ccc12 [Compound I-124, N-(3-(4H-1,2,4-triazol-3-yl)propyl)-2-(4-fluorophenyl)-4-(2-methoxyethoxy)quinoline-7-carboxamide] | 92% | 50 to 100 nM | 2% |
| CCOc1cc(-c2ccc(Cl)s2)nc2cc(C(=O)NCCCc3nnc[nH]3)ccc12 [Compound I-125, 2-(5-chloro-2-thienyl)-4-ethoxy-N-[3-(4H-1,2,4-triazol-3-yl)propyl]quinoline-7-carboxamide] | 100% | < 10 nM | 2% |
| COCCOc1cc(-c2ccc(F)cc2)nc2cc(C(=O)NCCc3c[nH]nc3C)ccc12 [Compound I-126, 2-(4-fluorophenyl)-4-(2-methoxyethoxy)-N-[2-(3-methyl-1H-pyrazol-4-yl)ethyl]quinoline-7-carboxamide] | 91% | 50 to 100 nM | 2% |
| CCOc1cc(-c2cncc(C)c2)nc2cc(C(=O)NCCCc3nnc[nH]3)ccc12 [Compound I-127, 4-ethoxy-2-(5-methylpyridin-3-yl)-N-[3-(4H-1,2,4-triazol-3-yl)propyl]quinoline-7-carboxamide] | 87% | 50 to 100 nM | 2% |
| CCOc1cc(-c2ccc(F)cc2OC)nc2cc(C(=O)NCCCc3cc[nH]n3)ccc12 [Compound I-128, 4-ethoxy-2-(4-fluoro-2-methoxyphenyl)-N-[3-(1H-pyrazol-3-yl)propyl]quinoline-7-carboxamide] | 96% | 10 to 50 nM | 2% |
| CCOc1cc(-c2ccc(F)cc2OC)nc2cc(C(=O)NCCc3c[nH]nc3C)ccc12 [Compound I-129, 4-ethoxy-2-(4-fluoro-2-methoxyphenyl)-N-[2-(3-methyl-1H-pyrazol-4-yl)ethyl]quinoline-7-carboxamide] | 96% | 10 to 50 nM | 2% |
